# Reference: the supplement of paper PMC10307832
# Key:
# Assay in all cases: relative viability (nuclei count vs DMSO), 5 days (fraction); higher = more cells survive
# [1] = tested on: A-427
# Method in brief: (§1)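 Lung cancer cell lines in 1536-well plates were dosed by pin tool the day after seeding, either with one drug alone or with a fixed anchor-drug dose plus five library-drug doses (not always all listed) in √10 steps. After 5 days, cells were fixed and their nuclei stained in one step (final 0.05% Triton X-100, 1% formaldehyde, 1 ug/ml Hoechst), then counted on 4× images. Relative viability is the nuclei count in treated wells divided by that in vehicle wells. Values are medians of duplicate plates.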
# [2] = tested on: CAL-12T
# Method in brief: as §1
# [3] = tested on: COR-L 105
# Method in brief: as §1
# [4] = tested on: COR-L23
# Method in brief: as §1
# [5] = tested on: EPLC-272H
# Method in brief: as §1
# [6] = tested on: HOP-62
# Method in brief: as §1
# [7] = tested on: LCLC-103H
# Method in brief: as §1
# [8] = tested on: LXF-289
# Method in brief: as §1
# [9] = tested on: NCI-H1651
# Method in brief: as §1
# [10] = tested on: NCI-H1975
# Method in brief: as §1
# [11] = tested on: NCI-H1993
# Method in brief: as §1
# [12] = tested on: NCI-H2023
# Method in brief: as §1
# [13] = tested on: NCI-H2085
# Method in brief: as §1
# [14] = tested on: NCI-H2087
# Method in brief: as §1
# [15] = tested on: NCI-H3122
# Method in brief: as §1
# [16] = tested on: NCI-H596
# Method in brief: as §1
# [17] = tested on: NCI-H647
# Method in brief: as §1
# [18] = tested on: NCI-H650
# Method in brief: as §1
# [19] = tested on: PC-14
# Method in brief: as §1
# [20] = tested on: RERF-LC-KJ
# Method in brief: as §1
structure (smiles),measurement,setting,value
O=C(O)CCCCC(CCSCc1ccccc1)SCc1ccccc1 (stereo not given) [CPI-613] + CC(C)C[C@H](NC(=O)[C@H](Cc1ccccc1)NC(=O)c1cnccn1)B(O)O [Bortezomib] (partner 0.002 µM),relative viability,[1]; first compound 5 µM,0.939
same,relative viability,[1]; first compound 15.81 µM,0.901
same,relative viability,[1]; first compound 50 µM,0.96
same,relative viability,[1]; first compound 158.11 µM,0.761
same,relative viability,[1]; first compound 500 µM,0.253
same,relative viability,[2]; first compound 5 µM,0.866
same,relative viability,[2]; first compound 15.81 µM,0.774
same,relative viability,[2]; first compound 50 µM,0.758
same,relative viability,[2]; first compound 158.11 µM,0.498
same,relative viability,[2]; first compound 500 µM,0.277
same,relative viability,[3]; first compound 5 µM,0.652
same,relative viability,[3]; first compound 15.81 µM,0.859
same,relative viability,[3]; first compound 50 µM,0.542
same,relative viability,[3]; first compound 158.11 µM,0.287
same,relative viability,[3]; first compound 500 µM,0.195
same,relative viability,[4]; first compound 5 µM,0.938
same,relative viability,[4]; first compound 15.81 µM,0.941
same,relative viability,[4]; first compound 50 µM,1
same,relative viability,[4]; first compound 158.11 µM,0.408
same,relative viability,[4]; first compound 500 µM,0.0074
same,relative viability,[5]; first compound 5 µM,0.937
same,relative viability,[5]; first compound 15.81 µM,0.859
same,relative viability,[5]; first compound 50 µM,1.1
same,relative viability,[5]; first compound 158.11 µM,0.778
same,relative viability,[5]; first compound 500 µM,0.93
same,relative viability,[6]; first compound 5 µM,0.511
same,relative viability,[6]; first compound 15.81 µM,0.545
same,relative viability,[6]; first compound 50 µM,1.26
same,relative viability,[6]; first compound 158.11 µM,0.464
same,relative viability,[6]; first compound 500 µM,0.0422
same,relative viability,[7]; first compound 5 µM,1.08
same,relative viability,[7]; first compound 15.81 µM,0.94
same,relative viability,[7]; first compound 50 µM,0.966
same,relative viability,[7]; first compound 158.11 µM,0.985
same,relative viability,[7]; first compound 500 µM,1.06
same,relative viability,[8]; first compound 5 µM,0.981
same,relative viability,[8]; first compound 15.81 µM,1.03
same,relative viability,[8]; first compound 50 µM,0.94
same,relative viability,[8]; first compound 158.11 µM,0.554
same,relative viability,[8]; first compound 500 µM,0.069
same,relative viability,[9]; first compound 5 µM,0.91
same,relative viability,[9]; first compound 15.81 µM,0.9
same,relative viability,[9]; first compound 50 µM,0.866
same,relative viability,[9]; first compound 158.11 µM,0.914
same,relative viability,[9]; first compound 500 µM,1
same,relative viability,[10]; first compound 5 µM,0.445
same,relative viability,[10]; first compound 15.81 µM,0.448
same,relative viability,[10]; first compound 50 µM,0.394
same,relative viability,[10]; first compound 158.11 µM,0.174
same,relative viability,[10]; first compound 500 µM,0.0487
same,relative viability,[11]; first compound 5 µM,0.953
same,relative viability,[11]; first compound 15.81 µM,0.918
same,relative viability,[11]; first compound 50 µM,0.943
same,relative viability,[11]; first compound 158.11 µM,0.717
same,relative viability,[11]; first compound 500 µM,0.363
same,relative viability,[12]; first compound 5 µM,0.932
same,relative viability,[12]; first compound 15.81 µM,0.947
same,relative viability,[12]; first compound 50 µM,0.961
same,relative viability,[12]; first compound 158.11 µM,0.042
same,relative viability,[12]; first compound 500 µM,0.0072
same,relative viability,[13]; first compound 5 µM,0.984
same,relative viability,[13]; first compound 15.81 µM,0.847
same,relative viability,[13]; first compound 50 µM,0.995
same,relative viability,[13]; first compound 158.11 µM,0.873
same,relative viability,[13]; first compound 500 µM,0.194
same,relative viability,[14]; first compound 5 µM,0.838
same,relative viability,[14]; first compound 15.81 µM,0.725
same,relative viability,[14]; first compound 50 µM,0.827
same,relative viability,[14]; first compound 158.11 µM,0.33
same,relative viability,[14]; first compound 500 µM,0.016
same,relative viability,[15]; first compound 5 µM,0.973
same,relative viability,[15]; first compound 15.81 µM,1.04
same,relative viability,[15]; first compound 50 µM,1.01
same,relative viability,[15]; first compound 158.11 µM,0.939
same,relative viability,[15]; first compound 500 µM,0.281
same,relative viability,[16]; first compound 5 µM,0.972
same,relative viability,[16]; first compound 15.81 µM,0.934
same,relative viability,[16]; first compound 50 µM,1
same,relative viability,[16]; first compound 158.11 µM,0.779
same,relative viability,[16]; first compound 500 µM,0.208
same,relative viability,[17]; first compound 5 µM,0.861
same,relative viability,[17]; first compound 15.81 µM,0.8
same,relative viability,[17]; first compound 50 µM,0.962
same,relative viability,[17]; first compound 158.11 µM,0.0678
same,relative viability,[17]; first compound 500 µM,0.0092
same,relative viability,[18]; first compound 5 µM,0.828
same,relative viability,[18]; first compound 15.81 µM,0.617
same,relative viability,[18]; first compound 50 µM,0.92
same,relative viability,[18]; first compound 158.11 µM,0.689
same,relative viability,[18]; first compound 500 µM,0.452
same,relative viability,[19]; first compound 5 µM,0.989
same,relative viability,[19]; first compound 15.81 µM,0.855
same,relative viability,[19]; first compound 50 µM,0.839
same,relative viability,[19]; first compound 158.11 µM,0.893
same,relative viability,[19]; first compound 500 µM,0.339
same,relative viability,[20]; first compound 5 µM,1.1
same,relative viability,[20]; first compound 15.81 µM,1.13
same,relative viability,[20]; first compound 50 µM,1.08
same,relative viability,[20]; first compound 158.11 µM,1.07
same,relative viability,[20]; first compound 500 µM,0.958
